# Biological target: T1, human ALX receptor (Homo sapiens, UniProt P25090)
# T1 construct: expressed in transfected cells; host or cells: HEK293 (HEK293-hALXR-Ga16)
# T1 sequence (P25090 1-351): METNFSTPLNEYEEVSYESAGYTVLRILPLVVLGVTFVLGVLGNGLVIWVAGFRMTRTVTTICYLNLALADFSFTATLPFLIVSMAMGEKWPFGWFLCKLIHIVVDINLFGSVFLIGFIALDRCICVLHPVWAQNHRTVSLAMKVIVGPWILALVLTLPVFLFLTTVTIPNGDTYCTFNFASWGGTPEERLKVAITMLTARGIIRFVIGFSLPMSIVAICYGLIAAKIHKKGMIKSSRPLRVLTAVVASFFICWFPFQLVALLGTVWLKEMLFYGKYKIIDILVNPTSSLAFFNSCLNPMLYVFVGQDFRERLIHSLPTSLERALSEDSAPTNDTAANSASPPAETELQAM
# Experiment: Intracellular calcium measurements (FLIPR), ALX receptor agonistic activity
# Assay type: cell-based
# Conditions: HEK293-hALXR-Ga16 cells, calcium flux, normalized to WKYMVm 10 nM; read-out: EC50 (agonistic activity with respect to the ALX receptor)
# Procedure: The ALX receptor agonistic activity of the compounds of formula (I) is determined in accordance with the following experimental method.
# Intracellular Calcium Measurements:
# Cells expressing recombinant human ALX receptor and the G-protein Ga16 (HEK293-hALXR-Ga16) were grown to 80% confluency in Growing Medium (GM). Cells were detached from culture dishes with a cell dissociation buffer (Invitrogen, 13151-014), and collected by centrifugation at 1′000 rpm at rt for 5 min in Assay Buffer (AB) (equal parts of Hank's BSS (Gibco, 14065-049) and DMEM without Phenol Red (Gibco, 11880-028)). After 60 min incubation at 37° C. under 5% CO2 in AB supplemented with 1 μM Fluo-4 (AM) (Invitrogen, F14202) and 20 mM HEPES (Gibco, 15630-056), the cells were washed and resuspended in AB. They were then seeded onto 384-well FLIPR assay plates (Greiner, 781091) at 50′000 cells in 70 μl per well and sedimented by centrifugation at 1′000 rpm for 1 min. Stock solutions of test compounds were made up at a concentration of 10 mM in DMSO, and serially diluted in AB to concentrations required for activation dose response curves. WKYMVm (Phoenix Peptides) was used as a reference agonist. A FLIPR Tetra instrument (Molecular Devices) was operated according to the manufacturer's standard instructions, adding 4 μl of test compound dissolved at 10 mM in DMSO and diluted prior to the experiment in assay buffer to obtain the desired final concentration. Changes in fluorescence were monitored before and after the addition of test compounds at lex=488 nm and lem=540 nm. Emission peak values above base level after compounds addition were exported after base line subtraction. Values were normalized to high-level control (WKYMVm compound, 10 nM final concentration) after subtraction of the base line value (AB addition).
row,Compound,EC50 [µM]
1,"Cc1cccc(-c2oc(C)nc2C(=O)Nc2cnn(Cc3ccc(C(C)(F)F)o3)n2)c1 [Example 1, 2-Methyl-5-m-tolyl-oxazole-4-carboxylic acid {2-[5-(1,1-difluoro-ethyl)-furan-2-ylmethyl]-2H-[1,2,3]triazol-4-yl}-amide]",0.0081
2,"CC(F)(F)c1csc(Cn2ncc(NC(=O)c3ncoc3-c3ccccc3)n2)n1 [Example 2, 5-Phenyl-oxazole-4-carboxylic acid {2-[4-(1,1-difluoro-ethyl)-thiazol-2-ylmethyl]-2H-[1,2,3]triazol-4-yl}-amide]",0.019
3,"Cc1cccc(-c2oc(C)nc2C(=O)Nc2cnn(Cc3nc(C(C)(F)F)cs3)n2)c1 [Example 3, 2-Methyl-5-m-tolyl-oxazole-4-carboxylic acid{2-[4-(1,1-difluoro-ethyl)-thiazol-2-ylmethyl]-2H-[1,2,3]triazol-4-yl}-amide]",0.0077
4,"Cc1nc(C(=O)Nc2cnn(Cc3ccc(C(C)(F)F)o3)n2)c(-c2ccccc2)o1 [Example 4, 2-Methyl-5-phenyl-oxazole-4-carboxylic acid{2-[5-(1,1-difluoro-ethyl)-furan-2-ylmethyl]-2H-[1,2,3]triazol-4-yl}-amide]",0.0009
5,"Cc1nc(C(=O)Nc2cnn(Cc3nc(C(C)(F)F)cs3)n2)c(-c2cc(F)cc(F)c2)o1 [Example 5, 5-(3,5-Difluoro-phenyl)-2-methyl-oxazole-4-carboxylic acid {2-[4-(1,1-difluoro-ethyl)-thiazol-2-ylmethyl]-2H-[1,2,3]triazol-4-yl}-amide]",0.818
6,"Cc1nc(C(=O)Nc2cnn(Cc3nc(C(C)(F)F)cs3)n2)c(-c2cccc(C(F)(F)F)c2)o1 [Example 6, 2-Methyl-5-(3-trifluoromethyl-phenyl)-oxazole-4-carboxylic acid {2-[4-(1,1-difluoro-ethyl)-thiazol-2-ylmethyl]-2H-[1,2,3]triazol-4-yl}-amide]",0.014
7,"CC(F)(F)c1ccc(Cn2ncc(NC(=O)c3ncoc3-c3cccc(Cl)c3)n2)o1 [Example 7, 5-(3-Chloro-phenyl)-oxazole-4-carboxylic acid{2-[5-(1,1-difluoro-ethyl)-furan-2-ylmethyl]-2H-[1,2,3]triazol-4-yl}-amide]",0.017
8,"COc1cccc(-c2ocnc2C(=O)Nc2cnn(Cc3nc(C(C)(F)F)cs3)n2)c1 [Example 8, 5-(3-Methoxy-phenyl)-oxazole-4-carboxylic acid{2-[4-(1,1-difluoro-ethyl)-thiazol-2-ylmethyl]-2H-[1,2,3]triazol-4-yl}-amide]",0.069
9,"CC(F)(F)c1csc(Cn2ncc(NC(=O)c3nc(C4CC4)oc3-c3ccccc3)n2)n1 [Example 9, 2-Cyclopropyl-5-phenyl-oxazole-4-carboxylic acid{2-[4-(1,1-difluoro-ethyl)-thiazol-2-ylmethyl]-2H-[1,2,3]triazol-4-yl}-amide]",0.291
10,"Cc1nc(C(=O)Nc2cnn(Cc3nc(C(C)(F)F)cs3)n2)c(-c2ccccc2)o1 [Example 10, 2-Methyl-5-phenyl-oxazole-4-carboxylic acid{2-[4-(1,1-difluoro-ethyl)-thiazol-2-ylmethyl]-2H-[1,2,3]triazol-4-yl}-amide]",0.0063
11,"CC(F)(F)c1ccc(Cn2ncc(NC(=O)c3ncoc3-c3cccc(F)c3)n2)o1 [Example 11, 5-(3-Fluoro-phenyl)-oxazole-4-carboxylic acid {2-[5-(1,1-difluoro-ethyl)-furan-2-ylmethyl]-2H-[1,2,3]triazol-4-yl}-amide]",0.0099
12,"CC(F)(F)c1csc(Cn2ncc(NC(=O)c3ncoc3-c3cccc(Cl)c3)n2)n1 [Example 12, 5-(3-Chloro-phenyl)-oxazole-4-carboxylic acid{2-[4-(1,1-difluoro-ethyl)-thiazol-2-ylmethyl]-2H-[1,2,3]triazol-4-yl}-amide]",0.046
13,"Cc1cc(F)cc(-c2oc(C)nc2C(=O)Nc2cnn(Cc3nc(C(C)(F)F)cs3)n2)c1 [Example 13, 5-(3-Fluoro-5-methyl-phenyl)-2-methyl-oxazole-4-carboxylic acid{2-[4-(1,1-difluoro-ethyl)-thiazol-2-ylmethyl]-2H-[1,2,3]triazol-4-yl}-amide]",1.13
14,"Cc1nc(C(=O)Nc2cnn(Cc3nc(C(C)(F)F)cs3)n2)c(-c2cccc(OC(F)(F)F)c2)o1 [Example 14, 2-Methyl-5-(3-trifluoromethoxy-phenyl)-oxazole-4-carboxylic acid{2-[4-(1,1-difluoro-ethyl)-thiazol-2-ylmethyl]-2H-[1,2,3]triazol-4-yl}-amide]",0.058
15,"Cc1nc(C(=O)Nc2cnn(Cc3ccc(C(C)(F)F)o3)n2)c(-c2cccc(Cl)c2)o1 [Example 15, 5-(3-Chloro-phenyl)-2-methyl-oxazole-4-carboxylic acid{2-[5-(1,1-difluoro-ethyl)-furan-2-ylmethyl]-2H-[1,2,3]triazol-4-yl}-amide]",0.023
16,"CC(F)(F)c1ccc(Cn2ncc(NC(=O)c3ncoc3-c3ccc(F)cc3)n2)o1 [Example 16, 5-(4-Fluoro-phenyl)-oxazole-4-carboxylic acid{2-[5-(1,1-difluoro-ethyl)-furan-2-ylmethyl]-2H-[1,2,3]triazol-4-yl}-amide]",0.046
17,"Cc1cccc(-c2ocnc2C(=O)Nc2cnn(Cc3nc(C(C)(F)F)cs3)n2)c1 [Example 17, 5-m-Tolyl-oxazole-4-carboxylic acid {2-[4-(1,1-difluoro-ethyl)-thiazol-2-ylmethyl]-2H-[1,2,3]triazol-4-yl}-amide]",0.011
18,"Cc1nc(C(=O)Nc2cnn(Cc3ccc(C(C)(F)F)o3)n2)c(-c2cc(F)cc(F)c2)o1 [Example 18, 5-(3,5-Difluoro-phenyl)-2-methyl-oxazole-4-carboxylic acid {2-[5-(1,1-difluoro-ethyl)-furan-2-ylmethyl]-2H-[1,2,3]triazol-4-yl}-amide]",0.661
19,"CN(C)c1cccc(-c2ocnc2C(=O)Nc2cnn(Cc3ccc(C(C)(F)F)o3)n2)c1 [Example 19, 5-(3-Dimethylamino-phenyl)-oxazole-4-carboxylic acid {2-[5-(1,1-difluoro-ethyl)-furan-2-ylmethyl]-2H-[1,2,3]triazol-4-yl}-amide]",0.033
20,"CC(F)(F)c1csc(Cn2ncc(NC(=O)c3ncoc3-c3cccc(F)c3)n2)n1 [Example 20, 5-(3-Fluoro-phenyl)-oxazole-4-carboxylic acid {2-[4-(1,1-difluoro-ethyl)-thiazol-2-ylmethyl]-2H-[1,2,3]triazol-4-yl}-amide]",0.055
21,"COc1cccc(-c2ocnc2C(=O)Nc2cnn(Cc3ccc(C(C)(F)F)o3)n2)c1 [Example 21, 5-(3-Methoxy-phenyl)-oxazole-4-carboxylic acid {2-[5-(1,1-difluoro-ethyl)-furan-2-ylmethyl]-2H-[1,2,3]triazol-4-yl}-amide]",0.035
22,"CN(C)c1cccc(-c2ocnc2C(=O)Nc2cnn(Cc3nc(C(C)(F)F)cs3)n2)c1 [Example 22, 5-(3-Dimethylamino-phenyl)-oxazole-4-carboxylic acid {2-[4-(1,1-difluoro-ethyl)-thiazol-2-ylmethyl]-2H-[1,2,3]triazol-4-yl}-amide]",0.052
23,"Cc1cccc(-c2ocnc2C(=O)Nc2cnn(Cc3ccc(C(C)(F)F)o3)n2)c1 [Example 23, 5-m-Tolyl-oxazole-4-carboxylic acid {2-[5-(1,1-difluoro-ethyl)-furan-2-ylmethyl]-2H-[1,2,3]triazol-4-yl}-amide]",0.01
24,"Cc1nc(C(=O)Nc2cnn(Cc3ccc(C(C)(F)F)o3)n2)c(-c2cccc(C(F)(F)F)c2)o1 [Example 24, 2-Methyl-5-(3-trifluoromethyl-phenyl)-oxazole-4-carboxylic acid {2-[5-(1,1-difluoro-ethyl)-furan-2-ylmethyl]-2H-[1,2,3]triazol-4-yl}-amide]",0.0021
25,"CC(F)(F)c1csc(Cn2ncc(NC(=O)c3ncoc3-c3ccc(F)cc3)n2)n1 [Example 25, 5-(4-Fluoro-phenyl)-oxazole-4-carboxylic acid {2-[4-(1,1-difluoro-ethyl)-thiazol-2-ylmethyl]-2H-[1,2,3]triazol-4-yl}-amide]",0.221
26,"Cc1cc(F)cc(-c2oc(C)nc2C(=O)Nc2cnn(Cc3ccc(C(C)(F)F)o3)n2)c1 [Example 26, 5-(3-Fluoro-5-methyl-phenyl)-2-methyl-oxazole-4-carboxylic acid {2-[5-(1,1-difluoro-ethyl)-furan-2-ylmethyl]-2H-[1,2,3]triazol-4-yl}-amide]",0.742

# From patent publication US8580831B2, “Fluorinated aminotriazole derivatives” (Actelion Pharmaceuticals Ltd., priority 2009, dated 2013)
